Assay results as given in US7977387B2, “Aminobenzophenone compounds” (Leo Pharma A/S, priority 2003, dated 2011).

How the values were obtained:
p38α MAP kinase = molecular target: T1, p38α MAP kinase (Homo sapiens, UniProt Q16539); experiment: p38α MAP kinase assay (immunoprecipitated FLAG-p38α, GST-ATF-2 substrate); assay type: biochemical; conditions: FLAG-p38α from COS-1 cells, 50 μM ATP; read-out: p38 MAP kinase IC50
T1 construct: made in house; host or cells: COS-1 cells (transient co-transfection; anti-FLAG M2 immunoprecipitation)
T1 sequence (Q16539 whole entry): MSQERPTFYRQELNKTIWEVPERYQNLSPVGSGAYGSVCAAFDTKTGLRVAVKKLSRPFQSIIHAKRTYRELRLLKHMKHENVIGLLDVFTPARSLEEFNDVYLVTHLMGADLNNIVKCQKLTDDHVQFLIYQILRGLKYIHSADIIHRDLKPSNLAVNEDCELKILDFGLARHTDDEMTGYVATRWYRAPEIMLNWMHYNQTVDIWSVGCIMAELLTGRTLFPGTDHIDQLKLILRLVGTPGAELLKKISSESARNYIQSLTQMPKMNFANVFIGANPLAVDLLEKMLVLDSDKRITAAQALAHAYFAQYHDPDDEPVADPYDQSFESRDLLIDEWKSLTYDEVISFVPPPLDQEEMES
Experimental: COS-1 cells (derived from African green monkey kidney fibroblast-like cell containing wild-type T antigen under control of the SV40 promotor) were obtained from ATCC (ATCC no. CRL-1650) and grown in growth medium (DMEM without phenoired, 10% FCS, 2 mM L-glutamine, 100 U penicillin and 100 μg streptomycin/ml) at 37° C. with 5% CO2. The cells were passaged twice a week by trypsination (0.25% trypsin, 1 mM EDTA in PBS) and were split 1:10. The medium was changed every second or third day. The cell line was regularly tested with the Mycoplasma PCR Primer Set (Stratagene) and found to be free of Mycoplasma. Tissue culture media, FCS, L-glutamine and penicillin and streptomycin are from Bribco BRL, Gaithersburg, Md., USA.
Transient Expression of COS-1 Cells
On day one COS-1 cells were seeded in 143 cm^2 petri dish with a density of 2×10^4 celler/cm^2 in growth medium. At day 2 the cells were co-transfected with 5 μg (total) of experimental plasmid DNA, expressing the FLAG-p38α and FLAG-MKK6(EE). The plasmids were introduced into the COS-1 cells in serum-free medium using DOTAP™ (Boehringer-Mannheim, Mannheim, Germany). Plasmid DNA was prepared and purified using the QIAGEN EndoToxin-free Maxiprep-500 kit (Hilden, Germany). Briefly, DNA and DOTAP™ were mixed for exactly 15 min. at 37° C. In the CO2 incubator. […]

TNF-α = experiment: Inhibition of TNF-α secretion in LPS stimulated peripheral blood mononuclear cells; assay type: cell-based; conditions: PBMC; LPS stimulated human peripheral blood mononuclear cells, 18 hours, ELISA; read-out: The median inhibition concentration (IC50, nM) of TNF-α
In short: (§1)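 Human PBMCs (5×10^5 cells/ml, RPMI 1640 + 2% FCS) pre-treated with compound 30 min, then stimulated with LPS ([…]) for 18 h. Secreted IL-1β and TNF-α quantified by ELISA; IC50 values calculated.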

[1] = system: LPS induced TNF-α response; experiment: In vivo screening model of LPS induced TNF-α response in mice; conditions: Mus musculus, mice (C3H/HeN), dosed 1 hour prior to LPS, plasma TNF-α 80-90 minutes after LPS, vs LPS treated control group, read-out: In vivo inhibition of LPS induced TNF-α production (in %)
Experimental: In Vivo Screening Model of LPS Induced TNF-α Response in Mice
To study the effect of compounds of the present invention in vivo, an in vivo screening model of LPS induced TNF-α response in mice was set up as follows: Groups of 6 mice (C3H/HeN, female, about 8 weeks (20 g), Bomholtgaard) were dosed with test compounds in suspension vehicle 1 hour prior to LPS administration (LPS from E. coli 055:B5, L-4005, Sigma). At time 0, the mice were dosed ip with 1.0 mg LPS/kg. After anesthetization with Hypnorm/Dormicum, the mice were bled from the periorbital venous plexus 80-90 minutes after LPS administration. The blood samples were sampled in EDTA stabilised tubes and centrifuged at 4000 rpm for 10 minutes at 4° C. The plasma level of TNF-α was analysed by ELISA. Compound 156 of WO 98/32730 was used as reference compound. The plasma level of TNF-α was determined using a sandwich ELISA. Microtiter plates were coated with a monoclonal antibody against mouse TNF-α, washed and blocked with a casein buffer. Samples of mouse TNF-α recombinant standards were added to the wells of the microtiter plates and incubated. All standards were tested in triplicate, all plasma samples in single. After sample and standard incubation, the plates were washed and incubated with biotinylated polyclonal secondary antibody against mouse TNF-α and washed. Enzyme conjugate was added to all wells and incubated. Substrate was added and the enzyme/substrate reaction stopped after 15 minutes at room temperature with 1M H2SO4. The colour development (OD) was measured at 450 nm on an ELISA reader and the background OD at 620 nm was subtracted. […] The results of the tested compounds are indicated as a percentage inhibition compared to an LPS treated control group. Compounds were tested at 10 mg/kg. The Mann-Whitney test was used to compare drug treated groups to the LPS treated control group (p<0.05).

IL-1β = experiment: Inhibition of IL-1β secretion in LPS stimulated peripheral blood mononuclear cells; assay type: cell-based; conditions: PBMC; LPS stimulated human peripheral blood mononuclear cells, 18 hours, ELISA; read-out: The median inhibition concentration (IC50, nM) of IL-1β
In short: as §1

IC50 (p38α MAP kinase) [nM]	IC50 (TNF-α) [nM]	IC50 (IL-1β) [nM]	Structure (SMILES)	inhibition at 10 mg/kg [1] [%]
–	0.5	0.8	Cc1ccc(C(=O)NCCO)cc1C(=O)c1ccc(Nc2cccc(F)c2C)cc1Cl [Compound 186, 3-[2-Chloro-4-(3-fluoro-2-methyl-phenylamino)-benzoyl]-N-(2-hydroxy-ethyl)-4-methyl-benzamide]	92
–	0.9	4.5	Cc1ccc(C(=O)NC(C)(C)CO)cc1C(=O)c1ccc(Nc2ccc(F)cc2F)cc1Cl [Compound 156, 3-[2-Chloro-4-(2,4-difluoro-phenylamino)-benzoyl]-N-(2-hydroxy-1,1-dimethyl-ethyl)-4-methyl-benzamide]	73
–	1.6	6.3	COc1ccc(C(=O)NC(C)(C)CO)cc1C(=O)c1ccc(Nc2c(F)cccc2F)cc1Cl [Compound 178, 3-[2-Chloro-4-(2,6-difluoro-phenylamino)-benzoyl]-N-(2-hydroxy-1,1-dimethyl-ethyl)-4-methoxy-benzamide]	67
–	0.5	0.9	Cc1ccc(C(=O)NCCO)cc1C(=O)c1ccc(Nc2ccc(F)cc2Cl)cc1Cl [Compound 188, 3-[2-Chloro-4-(2-chloro-4-fluoro-phenylamino)-benzoyl]-N-(2-hydroxy-ethyl)-4-methyl-benzamide]	95
–	0.3	1	CCCNC(=O)Nc1ccc(C)c(C(=O)c2ccc(Nc3ccc(F)cc3F)cc2Cl)c1 [Compound 264, 1-{3-[2-Chloro-4-(2,4-difluoro-phenylamino)-benzoyl]-4-methyl-phenyl}-3-propyl-urea]	87
–	2	2.5	COc1ccc(C(=O)NCCO)cc1C(=O)c1ccc(Nc2c(F)cccc2F)cc1Cl [Compound 173, 3-[2-Chloro-4-(2,6-difluoro-phenylamino)-benzoyl]-N-(2-hydroxy-ethyl)-4-methoxy-benzamide]	90

Second part, the molecule before the results:

Structure (SMILES)	IC50 (p38α MAP kinase) [nM]	IC50 (TNF-α) [nM]	IC50 (IL-1β) [nM]	inhibition at 10 mg/kg [1] [%]
Cc1ccc(C(=O)NCCO)cc1C(=O)c1ccc(Nc2ccccc2N)cc1Cl [Compound 112, 3-[4-(2-Aminophenylamino)-2-chlorobenzoyl]-N-(2-hydroxyethyl)-4-methylbenzamide]	2	0.6	4	96
CCNC(=O)c1ccc(C)c(C(=O)c2ccc(Nc3ccc(Cl)cc3F)cc2Cl)c1 [Compound 126, 3-[2-Chloro-4-(4-chloro-2-fluoro-phenylamino)-benzoyl]-N-ethyl-4-methyl-benzamide]	–	0.6	2.8	79
Cc1ccc(C(=O)NCCO)cc1C(=O)c1ccc(Nc2ccc(F)cc2F)cc1Cl [Compound 115, 3-[2-Chloro-4-(2,4-difluorophenylamino)benzoyl]-N-(2-hydroxyethyl)-4-methylbenzamide]	–	0.3	1.3	96
Cc1ccc(C(=O)NCCO)cc1C(=O)c1ccc(Nc2ccc(Br)cc2N)cc1Cl [Compound 113, 3-[4-(2-Amino-4-bromophenylamino)-2-chlorobenzoyl]-N-(2-hydroxyethyl)-4-methylbenzamide]	–	1.8	4	83
CCOC(=O)CNC(=O)c1ccc(C)c(C(=O)c2ccc(Nc3ccc(Cl)cc3F)cc2Cl)c1 [Compound 123, {3-[2-Chloro-4-(4-chloro-2-fluoro-phenylamino)-benzoyl]-4-methyl-benzoylamino}acetic acid ethyl ester]	–	0.3	0.5	47
Cc1ccc(C(=O)NCC(N)=O)cc1C(=O)c1ccc(Nc2ccc(F)cc2F)cc1Cl [Compound 145, N-Carbamoylmethyl-3-[2-chloro-4-(2,4-difluoro-phenylamino)-benzoyl]-4-methyl-benzamide]	–	0.3	1.3	94
CCNC(=O)c1ccc(C)c(C(=O)c2ccc(Nc3ccc(F)cc3F)cc2Cl)c1 [Compound 149, 3-[2-Chloro-4-(2,4-difluoro-phenylamino)-benzoyl]-N-ethyl-4-methyl-benzamide]	–	0.5	1.6	89
Cc1ccc(C(=O)NCC(O)CO)cc1C(=O)c1ccc(Nc2ccc(F)cc2F)cc1Cl (stereo not shown) [Compound 152, 3-[2-Chloro-4-(2,4-difluoro-phenylamino)-benzoyl]-N-(2,3-dihydroxy-propyl)-4-methyl-benzamide]	–	0.6	2.8	99
COc1ccc(C(=O)NCCO)cc1C(=O)c1ccc(Nc2ccc(F)cc2F)cc1Cl [Compound 140, 3-[2-Chloro-4-(2,4-difluoro-phenylamino)-benzoyl]-N-(2-hydroxy-ethyl)-4-methoxy-benzamide]	–	1	1.4	76
